The source of these data is patent publication US12661309B2, “Preparation and efficacy of tooth whitening tablet including SHMP” (The Hershey Company, priority 2018, dated 2026).

Series [1] in a line: Stain removal (ΔE whitening index) on pre-stained bovine enamel slabs. Here is the method:
Commercially available bovine enamel slabs were purchased from Theremetrics Inc. The slabs were prepared by immersing the enamel specimens in a staining broth containing coffee, tea and gastric mucin and air-drying the specimens. The gastric mucin (glycoprotein) was added to the straining broth to afford pellicle formation on the enamel surface. This mimics the dental pellicle formed by the glycoproteins present in the saliva. The broth immersion and air-drying procedure was repeated several times up to four days to afford a heavily-stained film containing the pellicle, as shown in FIG. 2.
Six treatments were performed with 3 bovine enamel slabs per treatment (2 medium stained and 1 heavy stained). The following treatment regimen was followed. The pre-stained enamel slabs were suspended in aqueous medium using a thin rod in a plastic container. […]
After the treatment, the solution was emptied and the slab was rinsed with DI water and wiped with paper towel. […] The whiteness index was measured using Xrite spectrophotometer (L*a b) at the end of 28 and 56 cycles or treatments. […]
The term ΔE, known as the whitening index value, represents the change in color difference from baseline measurements. The L* a* b* values were measured by Xrite spectrophotometer which was calibrated every time prior use. […] Using the L* a* b* values, ΔE was calculated according to the formula as shown below. […]
The three phosphate buffer solutions (pH 5.8, 7.0, 8.0) were prepared using 0.2M NaH2PO4 and 0.2M Na2HPO4. […] The L* a* b* measurements were measured by Xrite spectrophotometer and digital images were taken at baseline, 28 cycles and at end of 56 cycles.
Artificial saliva was used as the medium for this example. […] The L* a* b* measurements were measured by Xrite spectrophotometer and digital images were taken at baseline, after 28 cycles and after 56 cycles.
Artificial saliva was used as the medium for Example 4. […] The L* a* b* measurements were measured by Xrite spectrophotometer and digital images were taken at baseline, after 28 treatment cycles and after 56 treatment cycles.

For series [2] the following is noted: hydrolyze to form orthophosphates; cited from earlier work.

In the case of `O=P1([O-])OP(=O)([O-])OP(=O)([O-])OP(=O)([O-])OP(=O)([O-])OP(=O)([O-])O1.[Na+].[Na+].[Na+].[Na+].[Na+].[Na+]` [Code B, sodium hexametaphosphate], the “stain removal, ingredient only vs tableted forms (Codes H, L & D)” value in series [1] (Example 1, specifically heavy stains) is “performed better than tableted forms”.
Turning to `O=P1([O-])OP(=O)([O-])OP(=O)([O-])OP(=O)([O-])OP(=O)([O-])OP(=O)([O-])O1.[Na+].[Na+].[Na+].[Na+].[Na+].[Na+]` [SHMP, sodium hexametaphosphate], the “relationship between SHMP concentration and stain removal efficacy ΔE values” in series [1] (Example 3, 0-8% SHMP tablets, medium stained slabs, artificial saliva) is “linear relationship”. Also, the “reduction of whitening efficacy” value in series [1] (Example 3, dropping SHMP level in tablet from 8% to 5%, artificial saliva) worked out at 32%. Also, the “stability in acidic environments” value in series [2] is recorded as “not stable”.
